# Measurements published in US8742110B2, “Spiroxazolidinone compounds” (Merck Sharp & Dohme Corp., priority 2010, dated 2014).
# Where a name gives a salt, the structure may show the parent alone.
# Molecular target: SSTR5 (Homo sapiens (Human), UniProt P35346)
# Assay: SSTR5 binding assay
# Conditions: CHO-K1 membranes expressing cloned human SSTR5
# Protocol: The receptor-ligand binding assays of all 5 subtype of SSTRs were performed with membranes isolated from Chinese hamster ovary (CHO)-K1 cells stably expressing the cloned human somatostatin receptors in 96-well format as previous reported.
# The stable cell lines for SSTR1-SSTR5 were developed by stably transfecting with DNA for all five SSTRs using Lipofectamine. […] The assay buffer consisted of 50 mM TrisHCl (pH 7.8) with 1 mM EGTA, […] MgCl2, leupeptin (10 μg/mL), pepstatin (10 μg/mL), bacitracin (200 μg/mL), and aprotinin (0.5 μg/mL). CHO-K1 cell membranes, radiolabeled somatostatin, and unlabeled test compounds were resuspended or diluted in this assay buffer. Unlabeled test compounds were examined over a range of concentrations from 0.01 nM to 10,000 nM.
# Compounds exemplified were tested in the SSTR5 binding assay.
# Chain of SSTR5 (P35346 whole entry): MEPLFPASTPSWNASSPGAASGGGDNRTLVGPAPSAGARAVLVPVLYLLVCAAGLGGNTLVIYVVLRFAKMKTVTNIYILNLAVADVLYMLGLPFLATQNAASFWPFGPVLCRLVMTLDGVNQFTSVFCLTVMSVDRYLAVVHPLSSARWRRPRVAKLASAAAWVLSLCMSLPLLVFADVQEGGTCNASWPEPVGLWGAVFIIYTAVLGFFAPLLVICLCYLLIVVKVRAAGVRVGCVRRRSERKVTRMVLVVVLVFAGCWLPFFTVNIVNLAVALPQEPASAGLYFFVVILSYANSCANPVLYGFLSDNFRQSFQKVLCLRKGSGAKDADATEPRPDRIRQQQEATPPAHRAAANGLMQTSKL
row,Structure (SMILES),IC50
1,"CCOc1cc(CN2CCC3(CC2)CN(c2ccc(C(=O)O)c(OC)c2)C(=O)O3)c(-c2ccc(F)c(F)c2F)cc1C [Example 4-18, 4-{8-[(4-Ethoxy-2′,3′,4′-trifluoro-5-methylbiphenyl-2-yl)methyl]-2-oxo-1-oxa-3,8-diazaspiro[4.5]dec-3-yl}-2-methoxybenzoic acid, TFA salt]",0.228 nM
2,"CCOc1cc(CN2CCC3(CC2)CN(c2ccc(O)nc2)C(=O)O3)cc(OCC)c1-c1ccc(F)cc1 [Example 3-13, 8-[(2,6-Diethoxy-4-fluorobiphenyl-4-yl)methyl]-3-(6-hydroxypyridin-3-yl)-1-oxa-3,8-diazaspiro[4.5]decan-2-one, TFA salt]",3.8 nM
3,"CCOc1cc(CN2CCC3(CC2)CN(c2ccc(C(=O)O)c(C(F)(F)F)c2)C(=O)O3)cc(OCC)c1-c1ccc(F)cc1 [Example 3-15, 4-{8-[(2,6-Diethoxy-4′-fluorobiphenyl-4-yl)methyl]-2-oxo-1-oxa-3,8-diazaspiro[4.5]dec-3-yl}-2-(trifluoromethyl)benzoic acid, TFA salt]",2.79 nM
4,"CCOc1cc(CN2CCCC3(CC2)CN(c2ccc(C(=O)O)cc2)C(=O)O3)cc(OCC)c1-c1ccc(F)cc1 (stereo not shown) [Example 2-12, 4-{8-[(2,6-Diethoxy-4′-fluorobiphenyl-4-yl)methyl]-2-oxo-1-oxa-3,8-diazaspiro[4.6]undec-3-yl}benzoic acid, TFA salt]",4.93 nM
5,"O=C(O)c1ccc(N2CC3(CCN(Cc4cn(C5CCCCC5)nc4-c4ccc(C(F)(F)F)cc4)CC3)OC2=O)cc1 [Example 1-24, 4-[8-({1-Cyclohexyl-3-[4-(trifluoromethyl)phenyl]-1H-pyrazol-4-yl}methyl)-2-oxo-1-oxa-3,8-diazaspiro[4.5]dec-3-yl]benzoic acid, TFA salt]",2.01 nM
6,"COc1ccc2c(CN3CCC4(CC3)CN(c3ccc(C(=O)O)cc3)C(=O)O4)nn(CC(=O)C(C)(C)C)c2c1 [Example 6-15, 4-(8-{[1-(3,3-Dimethyl-2-oxobutyl)-6-methoxy-1H-indazol-3-yl]methyl}-2-oxo-1-oxa-3,8-diazaspiro[4.5]dec-3-yl)benzoic acid, TFA salt]",1200 nM
7,"CCOc1ccc(-c2ccc(F)c(F)c2F)c(CN2CCC3(CC2)CN(c2ccc(C(=O)O)c(C)c2)C(=O)O3)c1 [Example 4-13, 4-{8-[(4-Ethoxy-2′,3′,4′-trifluorobiphenyl-2-yl)methyl]-2-oxo-1-oxa-3,8-diazaspiro[4.5]dec-3-yl}-2-methylbenzoic acid, TFA salt]",0.983 nM
8,"Cc1ccc(-c2cc(C)c(Cl)cc2CN2CCC3(CC2)CN(c2ccc(C(=O)O)cc2)C(=O)O3)cn1 [Example 4-23, 4-{8-[5-Chloro-4-methyl-2-(6-methylpyridin-3-yl)benzyl]-2-oxo-1-oxa-3,8-diazaspiro[4.5]dec-3-yl}benzoic acid, TFA salt]",2.3 nM
9,"CC(C)(C)n1cc(CN2CCC3(CC2)CN(c2ccc(C(=O)O)cc2)C(=O)O3)c(-c2ccc(F)c(Cl)c2)n1 [Example 1-28, 4-(8-{[1-tert-Butyl-3-(3-chloro-4-fluorophenyl)-1H-pyrazol-4-yl]methyl}-2-oxo-1-oxa-3,8-diazaspiro[4.5]dec-3-yl)benzoic acid, TFA salt]",0.421 nM
10,"O=C(O)c1ccc(N2CC3(CCN(Cc4sc(-c5ccccc5)nc4-c4ccccc4)CC3)OC2=O)cc1 [Example 6-32, 4-{8-[(2,4-Diphenyl-1,3-thiazol-5-yl)methyl]-2-oxo-1-oxa-3,8-diazaspiro[4.5]dec-3-yl}benzoic acid, TFA salt]",69.1 nM
11,"Cc1cc(CN2CCC3(CC2)CN(c2ccc(C(=O)O)cc2)C(=O)O3)cc2c1OCC2(C)C [Example 5-1, 4-{2-Oxo-8-[(3,3,7-trimethyl-2,3-dihydro-1-benzofuran-5-yl)methyl]-1-oxa-3,8-diazaspiro[4.5]dec-3-yl}benzoic acid, TFA salt]",2.38 nM

# Second part, the compound after the results:
row,IC50,Structure (SMILES)
1,121 nM,"CC(C)n1nc(CN2CCC3(CC2)CN(c2ccc(C(=O)O)cc2)C(=O)O3)c2ccc(C#N)cc21 [Example 6-9, 4-(8-{[6-Cyano-1-(propan-2-yl)-1H-indazol-3-yl]methyl}-2-oxo-1-oxa-3,8-diazaspiro[4.5]dec-3-yl)benzoic acid, TFA salt]"
2,0.55 nM,"CC(C)n1cc(CN2CCC3(CC2)CN(c2ccc(C(=O)O)cc2)C(=O)O3)c2cc(Br)ccc21 [Example 6-25, 4-(8-{[5-Bromo-1-(propan-2-yl)-1H-indol-3-yl]methyl}-2-oxo-1-oxa-3,8-diazaspiro[4.5]dec-3-yl)benzoic acid, TFA salt]"
3,185 nM,"COc1ccc2c(CN3CCC4(CC3)CN(c3ccc(C(=O)O)cc3)C(=O)O4)nn(-c3ccccc3)c2c1 [Example 6-13, 4-{8-[(6-Methoxy-1-phenyl-1H-indazol-3-yl)methyl]-2-oxo-1-oxa-3,8-diazaspiro[4.5]dec-3-yl}benzoic acid, TFA salt]"
4,1.33 nM,"O=C(O)c1ccc(N2CC3(CCN(Cc4cn(C5CCCCC5)nc4-c4ccc(F)c(F)c4F)CC3)OC2=O)cc1 [Example 1-19, 4-(8-{[1-Cyclohexyl-3-(2,3,4-trifluorophenyl)-1H-pyrazol-4-yl]methyl}-2-oxo-1-oxa-3,8-diazaspiro[4.5]dec-3-yl)benzoic acid, TFA salt]"
5,119 nM,"O=C(O)c1ccc(N2CC3(CCN(Cc4nc(-c5ccccc5)oc4-c4ccc(F)c(Cl)c4)CC3)OC2=O)cc1 [Example 6-27, 4-(8-{[5-(3-Chloro-4-fluorophenyl)-2-phenyl-1,3-oxazol-4-yl]methyl}-2-oxo-1-oxa-3,8-diazaspiro[4.5]dec-3-yl)benzoic acid, TFA salt]"
6,0.165 nM,"O=C(O)c1ccc(N2CC3(CCN(Cc4cc(OC(F)(F)F)ccc4-c4ccc(F)c(F)c4F)CC3)OC2=O)cc1 [Example 4-17, 4-(2-Oxo-8-{[2′,3′,4′-trifluoro-4-(trifluoromethoxy)biphenyl-2-yl]methyl}-1-oxa-3,8-diazaspiro[4.5]dec-3-yl)benzoic acid, TFA salt]"
7,0.546 nM,"CC(C)Oc1ccc(-c2ccc(F)c(F)c2F)c(CN2CCC3(CC2)CN(c2ccc(C(=O)O)cc2)C(=O)O3)c1 [Example 4-6, 4-{8-[(4-(Prop-2-yloxy)-2′,3′,4′-trifluorobiphenyl-2-yl)methyl]-2-oxo-1-oxa-3,8-diazaspiro[4.5]dec-3-yl}benzoic acid, TFA salt]"
8,0.502 nM,"CCOc1ccc(-c2ccc(F)c(F)c2)c(CN2CCC3(CC2)CN(c2ccc(C(=O)O)cc2)C(=O)O3)c1 [Example 4-4, 4-{8-[(4-Ethoxy-3′,4′-difluorobiphenyl-2-yl)methyl]-2-oxo-1-oxa-3,8-diazaspiro[4.5]dec-3-yl}benzoic acid, TFA salt]"
9,2.14 nM,"CC(C)n1cc(CN2CCC3(CC2)CN(c2ccc(C(=O)O)cc2)C(=O)O3)c(-c2ccc(F)c(F)c2F)n1 [Example 1-17, 4-(2-Oxo-8-{[1-(propan-2-yl)-3-(2,3,4-trifluorophenyl)-1H-pyrazol-4-yl]methyl}-1-oxa-3,8-diazaspiro[4.5]dec-3-yl)benzoic acid, TFA salt]"
10,442 nM,"Cc1cccn2c(-c3cc(F)c(F)cc3F)c(CN3CCC4(CC3)CN(c3ccc(C(=O)O)cc3)C(=O)O4)nc12 [Example 6-39, 4-(8-{[8-Methyl-3-(2,4,5-trifluorophenyl)imidazo[1,2-a]pyridin-2-yl]methyl}-2-oxo-1-oxa-3,8-diazaspiro[4.5]dec-3-yl)benzoic acid, TFA salt]"
11,0.317 nM,"Cc1cc(CN2CCC3(CC2)CN(c2ccc(C(=O)O)cc2)C(=O)O3)cc2c1OCCC2(C)C [Example 5-13, 4-{2-Oxo-8-[(4,4,8-trimethyl-3,4-dihydro-2H-chromen-6-yl)methyl]-1-oxa-3,8-diazaspiro[4.5]dec-3-yl}benzoic acid, TFA salt]"
12,0.49 nM,"CCOc1ccc(-c2ccc(F)cc2F)c(CN2CCC3(CC2)CN(c2ccc(C(=O)O)cc2)C(=O)O3)c1 [Example 4-3, 4-{8-[(4-Ethoxy-2′,4′-difluorobiphenyl-2-yl)methyl]-2-oxo-1-oxa-3,8-diazaspiro[4.5]dec-3-yl}benzoic acid, TFA salt]"
13,61.6 nM,"CC(C)(C)n1nc(CN2CCC3(CC2)CN(c2ccc(C(=O)O)cc2)C(=O)O3)c2cc(Cl)c(F)cc21 [Example 6-17, 4-{8-[(1-tert-Butyl-5-chloro-6-fluoro-1H-indazol-3-yl)methyl]-2-oxo-1-oxa-3,8-diazaspiro[4.5]dec-3-yl}benzoic acid, TFA salt]"
14,2.86 nM,"COc1ccc(-c2nn(C(C)(C)C)cc2CN2CCC3(CC2)CN(c2ccc(C(=O)O)cc2)C(=O)O3)cc1 [Example 1-10, 4-(8-{[1-tert-Butyl-3-(4-methoxyphenyl)-1H-pyrazol-4-yl]methyl}-2-oxo-1-oxa-3,8-diazaspiro[4.5]dec-3-yl)benzoic acid, TFA salt]"
15,0.188 nM,"CCOc1cc(CN2CCC3(CC2)CN(c2ccc(C(=O)O)c(C)c2)C(=O)O3)c(-c2ccc(F)c(F)c2F)cc1C [Example 4-12, 4-{8-[(4-Ethoxy-2′,3′,4′-trifluoro-5-methylbiphenyl-2-yl)methyl]-2-oxo-1-oxa-3,8-diazaspiro[4.5]dec-3-yl}-2-methylbenzoic acid, TFA salt]"
16,0.704 nM,"CCOc1cc(CN2CCC3(CC2)CN(c2ccc(C(=O)O)cc2)C(=O)O3)cc2c(OC)cccc12 [Example 5-2, 4-{8-[(4-Ethoxy-8-methoxynaphthalen-2-yl)methyl]-2-oxo-1-oxa-3,8-diazaspiro[4.5]dec-3-yl}benzoic acid, TFA salt]"

# Same assay, conditions: CHO-K1 membranes expressing cloned human SSTR5; TFA salt
row,Structure (SMILES),IC50
1,"COc1ccccc1-c1nn(C(C)(C)C)cc1CN1CCC2(CC1)CN(c1ccc(C(=O)O)cc1)C(=O)O2 [Example 1-14, 4-(8-{[1-tert-butyl-3-(2-Methoxyphenyl)-1H-pyrazol-4-yl]methyl}-2-oxo-1-oxa-3,8-diazaspiro[4.5]dec-3-yl)benzoic acid, TFA salt]",4.7 nM
